Drawing on the METLIN SMRT retention time set (Domingo-Almenara et al. 2019), this text covers RP-LC retention time for 58 compounds.

The nature of this series: gradient 5% acetonitrile 3 min, to 50% in 2 min, to 85% in 15 min, held 3 min, 100 µL/min. Particulars: column: Zorbax Extend-C18 2.1 x 50 mm; eluents: water / acetonitrile, 0.1% formic acid. In short, it runs like this: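 Values are retention times taken from adduct peaks that software picked and an analyst inspected. The pure standards were run as mixtures of ~100 molecules on HPLC linked to a quadrupole time-of-flight mass spectrometer, in positive and negative ionization mode. A Zorbax Extend-C18 column (2.1 × 50 mm, 1.8 μm) was used at 100 μL/min with water and acetonitrile, each including 0.1% formic acid.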
In turn, `COc1ccc(NS(=O)(=O)c2cc(-c3[nH]ncc3C(=O)N(C)C)oc2C)cc1F` returned an RP-LC retention time of 672 s. The figure for `O=S(=O)(c1cccc2cccnc12)N1CC[C@@H]2COCCN(Cc3ccccc3)[C@@H]2C1` is 664 s; for `O=C(Nc1nnc(-c2cccs2)o1)c1cccc(N2C(=O)CCC2=O)c1` it is 617 s; for `O=C(Cn1cccc1-c1nc(-c2ccccc2)no1)Nc1ccc2c(c1)OCCO2` it is 1090 s.

`CC(C)CCN1CCC(N2CCN(S(=O)(=O)c3ccc(F)cc3F)CC2)C1=O` (stereo not drawn): the RP-LC retention time was found to be 690 s. As to `CCc1ccc(Nc2nc(C(=O)NC3CCCC3)nc3ccccc23)cc1`, the RP-LC retention time is 934 s. As for `Cc1nc(NC(=O)c2ccc(Cl)cc2)nc2cc3c(cc12)OCO3`, the figure is 750 s; as for `CC(=O)N1CCc2cc(N3CC(C(=O)Nc4ccccc4C(C)C)CC3=O)ccc21` (stereo not drawn), 728 s. As for `CCSc1ccc(-n2ncc(C(=O)NC3CC3)c2C)nn1`, the figure is 722 s; as for `Cc1ccc(S(=O)(=O)NC(=O)Nc2nccs2)cc1`, 751 s; as for `Cc1cc(C)nc(NS(=O)(=O)c2ccc(NC(=O)NC3CCCCC3)cc2)n1`, 686 s. The compound `CC(=O)N1CCC(C(=O)NC2CCCN(c3cc(-c4ccc(Cl)cc4)[nH]n3)C2)CC1` (stereo not drawn) displayed an RP-LC retention time of 655 s.

For the compound `OCC1CN(c2ncccn2)CC12CCN(Cc1ccc(Cl)cc1F)CC2` (stereo not drawn), the RP-LC retention time was found to be 590 s. As for `Cc1ccc(CNC(=O)Cn2c(C)cc(-c3nnc(-c4ccc(F)cc4)o3)c2C)cc1`, the figure is 982 s; as for `O=C(Cn1cnc2ccccc2c1=O)N1CCCC(c2nnc(-c3ccccc3F)s2)C1` (stereo not drawn), 730 s; as for `CCN(CCNC(=O)C1CCN(c2nnc3ccc(Cl)cn23)CC1)c1ccccc1`, 629 s.

In turn, `CCOCCCNCc1ccc(-c2ccc(Cl)cc2)o1` yielded an RP-LC retention time of 687 s. `COc1ccc(Cl)c2c(=O)c3c([nH]c12)CCN(CC(=O)Nc1ccccc1Cl)C3` had an RP-LC retention time of 638 s. `COC(=O)c1nc(NC(=O)Cn2nc3c(cc2=O)CCCC3)sc1C` had an RP-LC retention time of 710 s. For `Cc1cccc(Sc2nccnc2N2CCCC(C(=O)NC(C)c3ccccc3)C2)c1` (stereo not drawn), the RP-LC retention time is 1150 s. As for `CCN(CC)CCCNC(=O)C1CCCN(c2ncc(-c3cccc(F)c3)cn2)C1` (stereo not drawn), the figure is 677 s; as for `COc1ccc(C2SCCN2S(=O)(=O)c2ccc(C)c([N+](=O)[O-])c2)cc1OC` (stereo not drawn), 900 s; as for `O=C(CCc1ccccc1)N1CCC(n2nnc3cc(F)ccc3c2=O)CC1`, 879 s. With `COc1nn(C)cc1C(=O)NCC(O)c1ccc(C(F)(F)F)cc1` (stereo not drawn), the RP-LC retention time was 669 s. The figure for `CCN1C(=O)COc2ccc(-c3noc(-c4ccccc4C)n3)cc21` is 1230 s; for `Cc1ccc(S(=O)(=O)N2CCCC2c2nc(-c3ccc(Cl)cc3)no2)cc1F` (stereo not drawn) it is 1230 s; for `Cc1noc(C)c1S(=O)(=O)N1CC(c2nc(-c3ccncc3)nn2C)C1` it is 618 s.

Compound `COc1ccc(CNC(=O)c2[nH]c3cc(C)sc3c2CN(C)C)cc1OC` registered an RP-LC retention time of 641 s. Turning to `CCn1ccc2cc(S(=O)(=O)N3CCC(C(=O)NCCC(C)N4CCCC4)CC3)ccc21` (stereo not drawn), the RP-LC retention time is 648 s. As for `CC1=C(c2ccccc2)S(=O)(=O)N=C1N1CCCN(C(=O)c2ccc(C)s2)CC1`, the figure is 821 s; as for `Cc1ccc(C)c2sc(NC(=O)CN(C)S(C)(=O)=O)nc12`, 804 s; as for `COCC(C)(O)CNC(=O)COc1ccccc1OC` (stereo not drawn), 608 s. Consider `Fc1ccc(CN2CCCCC2c2nncn2CC2CC2)cc1F` (stereo not drawn), for which the RP-LC retention time is 619 s. With `CNC(=O)c1ccc(-c2nc3cc(NS(=O)(=O)c4ccc(C)cc4C)ccc3n2C)cc1`, the RP-LC retention time is 657 s. On to `COc1ccc(OCc2nc(Cc3nc(-c4cccc(C)c4)oc3C)no2)cc1`, for which the RP-LC retention time turned out to be 1160 s. For the compound `CCOC(=O)c1c(C)oc2nc(C)nc(NCCCN(C)c3ccccc3)c12`, the RP-LC retention time is 701 s.

In the case of `Cc1noc(-c2ccc(OC3CN(S(=O)(=O)c4cccc5nsnc45)C3)cc2)n1`, the RP-LC retention time is 932 s. In turn, `CCOc1ccc(-c2noc(Cn3nc(-c4ccc(C)cc4)ccc3=O)n2)cc1` had an RP-LC retention time of 1160 s. As for `CC(C)NC(=O)NCc1ccc2c(c1)N(C(=O)c1ccccc1)C(C)C2` (stereo not drawn), the RP-LC retention time was 778 s. As for `O=S(=O)(Nc1cccnc1)c1ccc(Cl)c(-c2nnc(-c3ccccc3)o2)c1`, the figure is 807 s; as for `CS(=O)(=O)c1ccc(CC(=O)Nc2cccc3ccccc23)cc1`, 710 s; as for `CC1(C(=O)NCc2ccc(F)cc2)CCCN(S(=O)(=O)c2ccc(F)cc2F)C1` (stereo not drawn), 963 s. `CCN1C(=O)c2ccccc2Oc2ccc(C(=O)NC3CCCC3)cc21` registered an RP-LC retention time of 891 s. The figure for `COc1ccc(NC(=O)c2cnc(N3CCN(c4ccc(OC)cc4)CC3)nc2N)cc1` is 731 s; for `CCOC(=O)c1ccccc1NC(=O)Cn1cnc2c(sc3nc(-c4ccccc4)ccc32)c1=O` it is 1200 s; for `Clc1ccc(-c2nc3ccccn3c2Nc2ccc3c(c2)OCO3)cc1` it is 727 s. The figure for `CN(Cc1ccccc1)C(=O)c1cccc(NC(=O)[C@H]2[C@@H]3C[C@@H]4[C@H]2C(=O)O[C@@H]4C3)c1` is 766 s; for `CC(=O)c1ccc(NC(=O)c2c[nH]c3ncccc23)cc1` it is 652 s. Turning to `CCn1cc(-c2nc(C(=O)Nc3ccc(C#N)cc3)cs2)c2cccnc21`, the RP-LC retention time was found to be 1050 s. The compound `COc1ccccc1N1CCN(c2ncccc2-c2nc(-c3ccc(Cl)cc3)no2)CC1` showed an RP-LC retention time of 1320 s.

`COc1ccc(NC(=O)CSc2nccc(N3CCCC3)n2)cc1Cl` displayed an RP-LC retention time of 593 s. `CCN(CC)C(=O)Cn1nc2cc(C)nc(-c3ccc(C(F)(F)F)cc3)n2c1=O`: the RP-LC retention time came to 841 s. For the compound `Cn1ncc2c3ccccc3n(CCCC(=O)NCCCN3CCCC3=O)c2c1=O`, the RP-LC retention time was 665 s. `CCOC(=O)c1noc2nc(C)nc(NCC3CCN(CCc4ccc(F)cc4)CC3)c12` showed an RP-LC retention time of 741 s. As for `O=C(NCCc1csc(-c2cccs2)n1)C1CCN(C(=O)CCc2ccccc2)CC1`, the figure is 839 s; as for `Cc1nc2ccccc2c(=O)n1-c1ccc(NC(=O)C2CCN(S(=O)(=O)N3CCCC3)CC2)cc1`, 778 s; as for `Cc1ccc(S(=O)(=O)N2CCCC2c2nc(-c3ccc(Cl)cc3)no2)cc1C` (stereo not drawn), 1300 s. The figure for `O=C(c1cn(-c2cc(N3CCSCC3)ncn2)cn1)N1CCSCC1` is 774 s.
